Laboratory results as given in US20250235457A1, “METHODS AND COMPOSITIONS FOR TREATING CDKL5 DISORDER USING ALLOPURINOL” (priority 2024, published 2025).

What was measured:
CDKL5-deficient mice [1] = assay: Hind limb clasping test; format: in vivo; settings: Het CDKL5-deficient mice before vs after treatment, 5 and 10 days oral (FIG. 9)
Description: The hind limb clasping test was performed to assess motor function and neurological impairments in CDKL5-deficient mouse models before and after treatment with allopurinol. […] Mice were suspended by their tails for a duration of 2 minutes, and hind limb retraction behavior (referred to as clasping) was recorded. Video recordings were analyzed to determine total clasping time during the test. Each mouse was evaluated using a standardized scoring system based on the severity of hind limb clasping behavior: • 0. No limb clasping observed. • 1.
Testing was conducted at baseline (pre-treatment) and at 5 and 10 days following oral administration of allopurinol. The hind limb clasping scores were averaged for each group, and the results were analyzed to assess changes in motor impairments following treatment.

[2] = test system: patient with CDKL5 deficiency disorder (CDD); assay: Off-label allopurinol treatment of a pediatric patient with CDD (case); format: in vivo, human
Description: CDD is a severe neurodevelopmental disorder characterized by treatment-resistant epilepsy, profound developmental delays, and significant motor impairments.
The patient presented with severe developmental delays since birth and had never met motor or speech milestones. […] The patient also experienced frequent, uncontrolled seizures despite being on a ketogenic diet and receiving physical, occupational, speech, and vision therapies. Their seizures were refractory to multiple anti-epileptic drugs (AEDs), including Keppra, Epidiolex, Soticlestat, Clonazepam, Sabril, Phenobarbital, and Oxcarbazepine.
Baseline assessments conducted prior to treatment initiation included a review of medical history, physical examination, laboratory tests, and functional evaluations.
Allopurinol was prescribed as an adjunct therapy to the patient's existing seizure management regimen without modifications to their ongoing AED treatments or dietary plan. The treatment protocol involved administering allopurinol at a dose of 100 mg per day, divided into two doses of 50 mg with lunch and 50 mg with dinner. The patient's progress was monitored over a 24-week period, unless adverse events necessitated an adjustment or discontinuation of the treatment. Caregivers maintained a daily diary to document seizure frequency, duration, and type, as well as changes in behavior, communication attempts, motor abilities, urine output, and general health.
Clinical assessments were conducted every four weeks, either virtually or in-person, to monitor safety and efficacy. Laboratory tests were performed every six weeks to evaluate uric acid levels, urinalysis, complete blood count (“CBC”), blood sugar levels, and other relevant indicators. EEG assessments were conducted at baseline, at eight-week intervals, and at the end of the study to evaluate changes in seizure activity and brain function. Regular evaluations by a pediatric neuro-ophthalmologist were included to assess visual and neurological health.
During the study, therapeutic interventions such as speech therapy, physical therapy, and the use of augmentative and alternative communication (AAC) devices were continued. Specific goals included improving functional communication through AAC, enhancing motor control, and increasing engagement with therapy activities. Progress in these areas was tracked alongside clinical outcomes to assess the comprehensive impact of allopurinol on the patient's quality of life.
At the time of treatment initiation, the patient weighed 18 kg. […] The end-of-study assessment included a final medical evaluation, EEG, laboratory tests, and a review of therapy outcomes to measure the safety and efficacy of allopurinol as a treatment for CDD.

CDKL2 = assay: qPCR of CDKL2 expression in the treated patient; format: in vivo, human
[3] = test system: pediatric patients diagnosed with CDKL5 disorder; assay: Prospective open-label clinical trial in pediatric patients with CDKL5 disorder; format: in vivo, human
Description: For the clinical trial, a prospective, open-label study was conducted between Aug. 1, 2023, and May 1, 2024, to evaluate the efficacy of allopurinol in pediatric patients diagnosed with CDKL5 disorder. The trial enrolled eight patients, aged 2 to 10 years, with a confirmed diagnosis of CDKL5 disorder and ongoing epilepsy that was resistant to conventional anti-epileptic drugs. Patients were required to have a stable seizure regimen for at least four weeks prior to participation. Those with a history of severe allergic reactions to allopurinol or other contraindicating medical conditions were excluded from the study. All patients were treated with allopurinol as an adjunct therapy to their existing anti-epileptic drug regimen, with the starting dose set at 10 mg/kg/day, administered orally in divided doses (twice daily, BID). The dosage was adjusted based on individual tolerability, and all treatment was closely supervised by a pediatric neurologist specializing in seizure disorders. Seizure frequency and severity were assessed at baseline and then at 4-week intervals throughout the 9-month study period. The primary endpoint of the study was the reduction in the frequency of major motor seizures, which was assessed using patient diaries and caregiver reports. Secondary endpoints included the severity of seizures (measured by the Modified Rankin Scale), overall neurological improvement, and quality of life, evaluated using the CDKL5 Disorder Disease-Specific Quality of Life (CDKL5-QoL) questionnaire. Statistical analysis was performed using paired t-tests to compare seizure frequency data between baseline and post-treatment periods, with a significance level set at p<0.05.

CDKL5 Het female mice = assay: Seizure monitoring (video and EEG) in CDKL5 Het female mice; format: in vivo; settings: 30 mg/kg/day in drinking water, treated vs untreated controls
Description: A p-value of <0.05 was considered statistically significant.

[4] = test system: CDKL2 and GluN2B subunits in the hippocampal and cortical regions; assay: Histological / immunohistochemical analysis of brain tissue of CDKL5 Het mice; format: in vivo; settings: treated animals, 30 mg/kg/day
Description: In addition to the clinical trial, a preclinical animal study was conducted using a mouse model of CDKL5 disorder (CDKL5 Het female mice). A total of eight mice were included in the study, with four receiving treatment and four serving as untreated controls. All mice were housed under standard laboratory conditions with a 12-hour light/dark cycle and ad libitum access to food and water. The treatment protocol involved the oral administration of allopurinol dissolved in drinking water at a target dose of 30 mg/kg/day. The solution was prepared in phosphate-buffered saline (PBS) with a concentration of 0.1 mg/mL allopurinol in a 1:10 solution of dimethyl sulfoxide (DMSO):PBS (pH 7.2). Control animals received an identical solution without allopurinol. Seizure activity was monitored daily throughout the study, with seizure severity and duration recorded using both video and electroencephalogram assessments. At the end of the study, brain tissue from both treated and untreated animals was collected for histological analysis, specifically to assess the expression of CDKL2 and GluN2B subunits in the hippocampal and cortical regions. Immunohistochemical staining was used to visualize the localization and abundance of these proteins. Data from the seizure monitoring were analyzed using an unpaired t-test, and histological data were quantified using image analysis software. […]

[5] = test system: phosphorylation of key synaptic proteins, including EB2 (MAPRE2); assay: Neuronal cultures derived from CDKL5-deficient models; format: cell-based
[6] = 1:10 solution of DMSO:PBS (pH 7.2); 'believed to be approximately'; cited from earlier work
CDKL5-deficient mice [7] = assay: Marble burying test
[8] = test system: EB2 (MAPRE2) phosphorylation at phospho-Serine 222; assay: Western blot of EB2 phosphorylation in brain tissue of CDKL5-deficient mice; settings: 10 days
[9] = 100 mg per day, 24-week study period

Compound: Oc1ncnc2[nH]ncc12 [allopurinol]
- hind limb clasping behavior (CDKL5-deficient mice [1]): significant reduction in hind limb clasping behavior
- EEG background activity ([2]; 100 mg per day adjunct, with a reduction in epileptic discharges): marked improvement
- adverse effects [2, 9]: No adverse effects were reported
- tolerability [2, 9]: well tolerated
- CDKL5 Severity Scale Part 3 (Caregiver Report) ([2]; 3 months after treatment, before treatment 1, lower desirable): 0
- CDKL5 Severity Scale Part 6 (Motor Skills) ([2]; 3 months after treatment, before treatment 2, higher desirable): 4
- CDKL5 Severity Scale Part 4 (Clinician Report) ([2]; 3 months after treatment, before treatment 25, lower desirable): 25
- CDKL5 Severity Scale Part 2 (Seizure Activity) ([2]; 3 months after treatment, before treatment 29, lower desirable): 29
- CDKL5 Severity Scale Part 1 (General Health) ([2]; 3 months after treatment, before treatment 32, lower desirable): 21
- CDKL5 Severity Scale Total Score ([2]; 3 months after treatment, before treatment 104): 69
- CDKL5 Severity Scale Part 5 (Behavioral Skills) ([2]; 3 months after treatment, before treatment −1, higher desirable): 8
- seizure status ([2]; person, 100 mg per day adjunct, after 3 months): completely seizure-free
- quality of life (observational) ([2]; qualitative observational data): reduced sleep disturbances, improved saliva control, and decreased caregiver burden
- cognitive and motor functions ([2]; therapist and caregiver observation): notable gains in cognitive and motor functions
- patient's CDKL2 expression level (CDKL2; control group mean 5.44307×10^−6 (±2.26749×10^−6)): 1.7356×10^−5 (±1.302×10^−6)
- increase in the expression of CDKL2 vs healthy donor controls (CDKL2; treated patient compared to healthy donor controls): 3 fold
- patients demonstrating a decrease in seizure severity by at least one grade (Modified Rankin Scale) ([3]; 10 mg/kg/day): 75 % of patients
- patients reporting improvements in sleep patterns, motor skills, and cognitive function (CDKL5-QoL) ([3]; 10 mg/kg/day): 87.5 % of patients
- speech and motor delays ([3]; clinical trial conclusions): did not show marked improvements
- mean reduction in major motor seizures ([3]; eight patients aged 2 to 10 years, 10 mg/kg/day oral BID adjunct, 9 months, baseline on average 12 times per week): 63.2%
- reduction in seizure duration (CDKL5 Het female mice): 65%
- reduction in seizure severity (CDKL5 Het female mice): 72.5%
- CDKL2 expression in the hippocampal and cortical regions [4]: notable increase in CDKL2 expression
- GluN2B subunit mislocalization [4]: partially corrected
- phosphorylation of key synaptic proteins, including EB2 (MAPRE2) [5]: increased phosphorylation
- solubility [6]: approximately 0.1 mg/ml
- marble burying capacity (CDKL5-deficient mice [7]; Het mice treated vs untreated Het mice, 30 mg/kg/day oral (FIG. 8)): improvement in marble burying capacity
- crossing of the blood brain barrier (CDKL5-deficient mice [7]; inferred from the behavioral findings in CDKL5-deficient mice): crosses the blood brain barrier
- phosphorylated EB2 isoforms 1 and 2 at ps222 ([8]; Het female mice brain, 30 mg/kg/day, vs untreated controls, not statistically significant (FIG. 2)): trend towards increased phosphorylation
- phosphorylated EB2 isoform 3 at ps222 ([8]; Het female mice brain, 30 mg/kg/day, did not reach statistical significance (FIG. 3)): trend toward increased phosphorylation
- EB2 phosphorylation levels ([8]; KO male and Het female mice, 30 mg/kg/day in drinking water): increased EB2 phosphorylation levels
